Source: patent US20140194529A1, “USAGE OF NATURAL COMPOUND FOR TREATING INFLAMMATION AND CANCER” (Hong Kong Baptist University, priority 2013, published 2014)
Like-named read-outs stand apart in the source and are kept apart here.

How the values were obtained:
Format in all cases: cell-based
[1] = tested on: iNOS-induced NO generation in RAW 264.7 cells; assay: NO accumulation in LPS/IFN-γ stimulated RAW 264.7 cells (Griess reaction); conditions: 24 hours
Method: (§1) RAW264.7 were maintained in RPMI 1640 medium supplemented with 10% FBS at 37° C. in a humidified 5% CO2 atmosphere. Cells were plated in a 96-well plate (5×10^3 cells/well) and allowed to attach overnight. The cells were then stimulated with 10 U/ml of IFN-γ and 100 ng/ml of LPS for 24 hours in the presence or absence of GE with final concentration of 50, 25, 12.5, 6.25, 3.125 μg/mL, and Indometacin as positive drug.
as §1, with “For stimulation, the medium was replaced with fresh FBS-free RPMI 1640 for 10 hours, and the” for “The”, “extractions or fractions.” for “GE with final concentration of 50, 25, 12.5, 6.25, 3.125 μg/mL, and Indometacin as positive drug.”
iNOS function was analyzed with Griess reaction by assay of nitrite concentration in the culture supernatant. Briefly, 100 μl/well of sample was incubated with equal volume of Griess solution (1% sulfanilamide in 5% phosphoric acid+1% α-naphthylamine in distilled water) at room temperature for 10 minutes. The absorbance was evaluated at 540 nm using a calibration curve with a sodium nitrite standard. Percent inhibition was expressed as [1−(NO level of sample/NO level of vehicle treated−control)]×100.

[2] = tested on: breast cancer lines and liver cancer lines; assay: Cell cytotoxicity, MTT method (summary in conclusion)
Method: (§2) RAW 264.7 cells were obtained from the American Tissue Culture Collection (ATCC). Liver cancer line SMMC-7721 and HepG2, breast cancer lines including MCF-7 and MDA-MB-231 were purchased from cell-bank of Chinese Academy of Sciences, China. These cells were maintained in complete RPMI 1640 medium supplemented with 10% FBS at 37° C. in a humidified 5% CO2 atmosphere.
(§3) SMMC-7721 and HepG2, MCF-7 and MDA-MB-231 were seeded into 96-well plates (3×10^3 cells/well) and allowed to attach overnight. GE were added in final concentration of 50, 25, 12.5, 6.25, 3.125 μg/mL and continually cultured for 72 hours. Taxol as positive drug. Each well was incubated with 20 μl MTT (5 mg/ml in phosphate-buffered saline) for 4 hours at 37° C. Volume of 150 μl DMSO was added after the medium in well discarded and reacted for 10 minutes. Absorbance was measured at 490 nm. The optical density of formazan formed in control (untreated) cells was taken as 100% of viability. Mean value of each concentration (n=3 wells) was obtained.

MDA-MB-231 = assay: Cell cytotoxicity, MTT method; conditions: MDA-MB-231, 72 hours
Method: as §2, §3

HepG2 = assay: Cell cytotoxicity, MTT method; conditions: HepG2, 72 hours, read-out: The cell cytotoxicity effect, IC50
Method: as §2, §3

MCF-7 = assay: Cell cytotoxicity, MTT method; conditions: read-out: The cell cytotoxicity effect, IC50
Method: as §2, §3

SMMC-7721 = assay: Cell cytotoxicity, MTT method; conditions: SMMC-7721, 72 hours, read-out: The cell cytotoxicity effect, IC50
Method: as §2, §3

`COc1ccc2c(c1)c(CC(=O)O)c(C)n2C(=O)c1ccc(Cl)cc1` [Indometacin, reference compound] showed an inhibition at 1 µg/mL ([1]; Mus musculus, RAW264.7, 1 μg/mL, RAW 264.7, IFN-γ + LPS, read-out: The inhibitory effect on NO accumulation) of 46.5%.

For Garcimultiflorone E [GE], the “The inhibitory effect on NO accumulation, IC50” value ([1]; RAW 264.7, 10 U/ml IFN-γ + 100 ng/ml LPS) was 3.57 µg/mL, the IC50 ([1]; RAW 264.7, 10 U/ml IFN-γ + 100 ng/ml LPS, read-out: The inhibitory effect on NO accumulation, IC50) was 5.78 µM and the “Concentration at which proliferation is inhibited” value [2] was “about 10 μM”. The “Effect on proliferation (in words)” value (MDA-MB-231) was “no effect”, the IC50 (HepG2) was 13.2 µM and the IC50 (MCF-7; MCF-7, 72 hours) was 9.63 µM. The IC50 (SMMC-7721) was 11.9 µM.

In the case of `CC(=O)O[C@H]1C(=O)[C@@]2(C)[C@H]([C@H](OC(=O)c3ccccc3)[C@]3(O)C[C@H](OC(=O)[C@H](O)[C@@H](NC(=O)c4ccccc4)c4ccccc4)C(C)=C1C3(C)C)[C@]1(OC(C)=O)CO[C@@H]1C[C@@H]2O` [Taxol, reference compound], the IC50 (MDA-MB-231; Homo sapiens, read-out: The cell cytotoxicity effect, IC50) is reported as 5 µM, the IC50 (HepG2; Homo sapiens) is reported as 0.00044 µM and the IC50 (MCF-7; Homo sapiens, MCF7, MCF-7, 72 hours) is reported as 0.003 µM. The IC50 (SMMC-7721; Homo sapiens) was 0.15 µM.
